We go through 1 molecule from paper PMC3130785, “Small Compound 6-O-Angeloylplenolin Induces Mitotic Arrest and Exhibits Therapeutic Potentials in Multiple Myeloma” (PLoS ONE, 2011).

The test system of experiment [1] is CD138+ primary cells harvested from 7 MM patients. As to the kind of experiment: MTT assay on primary MM cells. Type of experiment: cell-based, human. The text has this: CD138+ cells from 7 MM patients were isolated with informed consent from BM mononuclear cells by using positive immunomagnetic column separation (Miltenyi Biotech, Auburn, CA). The purity of CD138+ cells is above 97% as determined by flow cytometry. BMSCs were generated from a MM patient-derived CD138-negative BM mononuclear cells cultured for 5 weeks. Peripheral blood mononuclear cells (PBMCs) from 5 healthy donors were separated by Ficoll-Hipaque density sedimentation.
U266, RPMI 8226 cells (1×10^4), primary CD138+ cells, PBMCs (5×10^4), and BMSCs (1×10^4) were cultured in 96-well dishes and incubated without or with 6-OAP at indicated concentration for 48 h. MM.1S and MM.1R cells (2×10^4) were seeded into 96-well dishes and pre-cultured for 24 h, then treated with 6-OAP for 48 h. Cell proliferation was determined by MTT assay. Cell viability was estimated by trypan blue dye exclusion.

The subject of experiment [2] is human HL-60 leukemia cells. Also on record: method as in PMID 18077129. The settings on record: mitochondrial/caspase and NF-κB pathway; cited from earlier work.
The next experiment relates to pIκBα and pP65. As to the kind of experiment: Western blotting, TNF-α stimulation. Type of experiment: cell-based, human. The settings on record: MM.1S; 6-OAP 5 µM 12 h; TNF-α 5 ng/ml. As to the method:
Cell pellets were lysed in RIPA buffer containing 50 mM Tris pH 8.0, 150 mM NaCl, 0.1% SDS, 0.5% deoxycholate, 1% NP-40, 1 mM DTT, 1 mM NaF, 1 mM sodium vanadate, and protease inhibitors cocktail (Sigma). For immunoprecipitations, cells were lysed on ice for 15 minutes in RIPA buffer. Lysates were centrifuged. The supernatant was incubated with indicated antibodies overnight, after which protein A/G Plus beads (Santa Cruz Biotechnology) were added and incubated for 3 h. The beads were washed 4 times in RIPA buffer. Then the beads were resuspended in 1× sample buffer and boiled for 3 min. Protein extracts were quantitated and loaded on 8% to 12% sodium dodecyl sulfate polyacrylamide gel, electrophoresed, and transferred to a nitrocellulose membrane (Whatman). The membrane was incubated with primary antibody, washed, and incubated with horseradish peroxidase (HRP)–conjugated secondary antibody (Pierce). Detection was performed by using a chemiluminescent western detection kit (Cell Signaling). […]
Figure 5 6-OAP overcomes the protective effects of IL-6, IGF-I and BMSCs on MM cells. […] Cell proliferation was assessed by MTT assay. […] Cell proliferation was assessed by MTT assay. *p<.01,** p<.05. […]

For the molecule `CC=C(C)C(=O)OC1C2C(CC(C)C3C=CC(=O)C31C)OC(=O)C2C` (stereo not drawn) [6-OAP, 6-O-angeloylplenolin], the “cell growth of CD138+ primary cells” value in experiment [1] is “suppressed cell growth”. Also, the apoptosis result in experiment [2] was “induce apoptosis”. Further, in the experiment on pIκBα and pP65, the “TNF-α-induced pIκBα and pP65” value is listed as “inhibited phosphorylation”.
